Laboratory results published in patent US20090156646A1, “PYRIDYLPHENOL COMPOUND AND USE THEREOF” (TAKEDA PHARMACEUTICAL COMPANY LIMITED, priority 2005, published 2009).

Columns and labels:
[1] = target: T1, human metastin receptor hOT7T175 (Homo sapiens, UniProt Q969F8, L364H); experiment: binding inhibiting activity: 125I-metastin (40-54) binding to cell membrane fraction of h175 KB34 cells; settings: room temperature 60 minutes, read-out: binding inhibiting activity, represented by the IC50 value
T1 construct: encoding the entire length of human metastin receptor hOT7T175; expressed in transfected cells; host or cells: CHO/dhFr- cells (ATCC #CRL-9096) stably transfected with pAKKO-hOT7T175; clone h175-16 was used as whole cells for FLIPR
Procedure, shortened: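 Membranes came from CHO/dhfr− cells stably expressing human hOT7T175 (clone h175 KB34) and were diluted 250-fold for use. Binding of 125I-metastin (40-54) was run in 20 mM Tris, 2.5 mM magnesium acetate and 2 mM EGTA, pH 7.4, with protease inhibitors, either without BSA or with 1 mg/ml BSA.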

T1 sequence (Q969F8 whole entry L364H): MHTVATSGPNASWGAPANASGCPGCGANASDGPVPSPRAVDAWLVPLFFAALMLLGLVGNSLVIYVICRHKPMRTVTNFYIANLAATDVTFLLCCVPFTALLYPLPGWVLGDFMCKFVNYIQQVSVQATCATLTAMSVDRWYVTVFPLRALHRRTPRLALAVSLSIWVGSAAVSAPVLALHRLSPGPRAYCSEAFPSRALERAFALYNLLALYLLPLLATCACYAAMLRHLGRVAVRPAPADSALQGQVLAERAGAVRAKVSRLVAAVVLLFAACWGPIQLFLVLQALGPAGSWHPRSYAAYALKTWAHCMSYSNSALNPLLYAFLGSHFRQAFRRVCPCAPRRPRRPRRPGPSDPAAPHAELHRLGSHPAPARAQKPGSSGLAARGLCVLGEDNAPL

| melting point | IC50 [1] | Compound |
| --- | --- | --- |
| 203 to 205 °C | ≤ 10 µM | N#Cc1c(-c2cccc(CN)c2)cc(-c2ccccc2O)nc1NC(=O)c1cccs1 [Example 1, N-[4-[3-(aminomethyl)phenyl]-3-cyano-6-(2-hydroxyphenyl)pyridin-2-yl]thiophene-2-carboxamide] |
| 241 to 244 °C | ≤ 10 µM | CC(C)(CN)CNC(=O)c1cccc(-c2cc(-c3ccc(Cl)cc3O)nc(NC(=O)c3ccco3)c2C#N)c1.Cl [Example 85, N-[4-(3-{[(3-amino-2,2-dimethylpropyl)amino]carbonyl}phenyl)-6-(4-chloro-2-hydroxyphenyl)-3-cyanopyridin-2-yl]-2-furamide hydrochloride] |
| 182 to 184 °C | ≤ 10 µM | Cl.N#Cc1c(-c2cccc(C(=O)NCCCn3ccnc3)c2)cc(-c2ccc(Cl)cc2O)nc1NC(=O)c1ccco1 [Example 83, N-{6-(4-chloro-2-hydroxyphenyl)-3-cyano-4-[3-({[3-(1H-imidazol-1-yl)propyl]amino}carbonyl)phenyl]pyridin-2-yl}-2-furamide hydrochloride] |
| 206 to 212 °C | ≤ 10 µM | Cc1ccc(C(=O)Nc2nc(-c3ccc(Cl)cc3O)cc(-c3cccc(NC(=O)CC(C)N)c3)c2C#N)o1.Cl (centres unmarked) [Example 271, N-[4-{3-[(3-aminobutanoyl)amino]phenyl}-6-(4-chloro-2-hydroxyphenyl)-3-cyanopyridin-2-yl]-5-methyl-2-furamide hydrochloride] |
| 192 to 196 °C | ≤ 10 µM | CCN(CC)[C@@H](COC)C(=O)Nc1cccc(-c2cc(-c3ccc(F)cc3O)nc(NC(=O)c3ccco3)c2C#N)c1.Cl [Example 306, N-[3-cyano-4-{3-[(N,N-diethyl-O-methyl-L-seryl)amino]phenyl}-6-(4-fluoro-2-hydroxyphenyl)pyridin-2-yl]-2-furamide hydrochloride] |
| 225 to 226 °C | ≤ 10 µM | CN(C)Cc1cccc(-c2cc(-c3ccccc3O)nc(NC(=O)c3cccs3)c2C#N)c1 [Example 2, N-[3-cyano-4-{3-[(dimethylamino)methyl]phenyl}-6-(2-hydroxyphenyl)pyridin-2-yl]thiophene-2-carboxamide] |
| 195 to 196 °C | ≤ 10 µM | Cl.N#Cc1c(-c2cccc(C(=O)NCCCn3ccnc3)c2)cc(-c2ccc(F)cc2O)nc1NC(=O)c1cccs1 [Example 78, N-{3-cyano-6-(4-fluoro-2-hydroxyphenyl)-4-[3-({[3-(1H-imidazole-1-yl)propyl]amino}carbonyl)phenyl]pyridin-2-yl}thiophene-2-carboxamide hydrochloride] |
| ≥ 250 °C (dec.) | ≤ 10 µM | Cl.N#Cc1c(-c2cccc(NC(=O)[C@H]3CCCN3)c2)cc(-c2ccc(F)cc2O)nc1NC(=O)c1ccno1 [Example 293, N-(3-{3-cyano-6-(4-fluoro-2-hydroxyphenyl)-2-[(isoxazol-5-ylcarbonyl)amino]pyridin-4-yl}phenyl)-D-prolinamide hydrochloride] |
| 233 to 238 °C | ≤ 10 µM | CCNC(CC)CC(=O)Nc1cccc(-c2cc(-c3ccc(F)cc3O)nc(NC(=O)c3ccco3)c2C#N)c1.Cl (centres unmarked) [Example 308, N-[3-cyano-4-(3-{[3-(ethylamino)pentanoyl]amino}phenyl)-6-(4-fluoro-2-hydroxyphenyl)pyridin-2-yl]-2-furamide hydrochloride] |
| 224 to 226 °C | ≤ 10 µM | Cl.N#Cc1c(-c2cccc(NC(=O)[C@H]3CCC[C@H]3N)c2)cc(-c2ccc(F)cc2O)nc1NC(=O)c1ccco1 (racemic) [Example 278, N-{4-[3-({[(1SR,2RS)-2-aminocyclopentyl]carbonyl}amino)phenyl]-3-cyano-6-(4-fluoro-2-hydroxyphenyl)pyridin-2-yl}-2-furamide hydrochloride] |
| 223 to 224 °C | ≤ 10 µM | CCN(C)CCC(=O)Nc1cccc(-c2cc(-c3ccc(F)cc3O)nc(NC(=O)c3ccco3)c2C#N)c1.Cl [Example 316, N-[3-cyano-4-{3-[(N-ethyl-N-methyl-β-alanyl)amino]phenyl}-6-(4-fluoro-2-hydroxyphenyl)pyridin-2-yl]-2-furamide hydrochloride] |
| 227 to 229 °C | ≤ 10 µM | COc1ccccc1C(=O)Nc1nc(-c2ccc(F)cc2O)cc(-c2cccc(C(=O)NCCN)c2)c1C#N.Cl [Example 244, N-[4-(3-{[(2-aminoethyl)amino]carbonyl}phenyl)-3-cyano-6-(4-fluoro-2-hydroxyphenyl)pyridin-2-yl]-2-methoxybenzamide hydrochloride] |
| 224 to 230 °C | ≤ 10 µM | COC[C@H](N)C(=O)Nc1cccc(-c2cc(-c3ccc(F)cc3O)nc(NC(=O)c3ccco3)c2C#N)c1.Cl [Example 301, N-(3-cyano-6-(4-fluoro-2-hydroxyphenyl)-4-{3-[(O-methyl-L-seryl)amino]phenyl}pyridin-2-yl)-2-furamide hydrochloride] |
| 254 to 259 °C | ≤ 10 µM | Cl.N#Cc1c(-c2cccc(N3CCCNCC3)c2)cc(-c2ccc(F)cc2O)nc1NC(=O)c1ccco1 [Example 326, N-[3-cyano-4-[3-(1,4-diazepan-1-yl)phenyl]-6-(4-fluoro-2-hydroxyphenyl)pyridin-2-yl]-2-furamide hydrochloride] |
| 249 to 255 °C | ≤ 10 µM | CCNC(C)CC(=O)Nc1cccc(-c2cc(-c3ccc(F)cc3O)nc(NC(=O)c3ccco3)c2C#N)c1.Cl (centres unmarked) [Example 320, N-[3-cyano-4-(3-{[3-(ethylamino)butanoyl]amino}phenyl)-6-(4-fluoro-2-hydroxyphenyl)pyridin-2-yl]-2-furamide hydrochloride] |
| 229 to 236 °C | ≤ 10 µM | Cl.N#Cc1c(-c2cccc(NC(=O)CN)c2)cc(-c2ccc(F)cc2O)nc1NC(=O)c1ccco1 [Example 329, N-{3-cyano-6-(4-fluoro-2-hydroxyphenyl)-4-[3-(glycylamino)phenyl]pyridin-2-yl}-2-furamide hydrochloride] |
| 209 to 213 °C | ≤ 10 µM | CCN(CC)CCC(=O)Nc1cccc(-c2cc(-c3ccc(F)cc3O)nc(NC(=O)c3ccco3)c2C#N)c1.Cl [Example 328, N-[3-cyano-4-{3-[(N,N-diethyl-β-alanyl)amino]phenyl}-6-(4-fluoro-2-hydroxyphenyl)pyridin-2-yl]-2-furamide hydrochloride] |
| 208 to 212 °C | ≤ 10 µM | Cl.N#Cc1c(-c2cccc(C(=O)NCCCn3ccnc3)c2)cc(-c2ccc(Cl)cc2O)nc1NC(=O)c1nccs1 [Example 250, N-{6-(4-chloro-2-hydroxyphenyl)-3-cyano-4-[3-({[3-(1H-imidazol-1-yl)propyl]amino}carbonyl)phenyl]pyridin-2-yl}-1,3-thiazole-2-carboxamide hydrochloride] |
| 254 to 259 °C | ≤ 10 µM | CN1CCN(c2cccc(-c3cc(-c4ccc(F)cc4O)nc(NC(=O)c4ccco4)c3C#N)c2)CC1.Cl [Example 327, N-{3-cyano-6-(4-fluoro-2-hydroxyphenyl)-4-[3-(4-methylpiperazin-1-yl)phenyl]pyridin-2-yl}-2-furamide hydrochloride] |
| 222 to 228 °C | ≤ 10 µM | Cl.N#Cc1c(-c2cccc(NC(=O)[C@H]3CCCN3)c2)cc(-c2ccc(Cl)cc2O)nc1NC(=O)c1nccs1 [Example 294, N-(3-{6-(4-chloro-2-hydroxyphenyl)-3-cyano-2-[(1,3-thiazol-2-ylcarbonyl)amino]pyridin-4-yl}phenyl)-D-prolinamide hydrochloride] |
| 212 to 214 °C | ≤ 10 µM | CCC(N)CC(=O)Nc1cccc(-c2cc(-c3ccc(F)cc3O)nc(NC(=O)c3ccco3)c2C#N)c1.Cl (centres unmarked) [Example 264, N-[4-{3-[(3-aminopentanoyl)amino]phenyl}-3-cyano-6-(4-fluoro-2-hydroxyphenyl)pyridin-2-yl]-2-furamide hydrochloride] |
| 214 to 217 °C | ≤ 10 µM | CC(C)C(N)CC(=O)Nc1cccc(-c2cc(-c3ccc(F)cc3O)nc(NC(=O)c3ccco3)c2C#N)c1.Cl (centres unmarked) [Example 266, N-[4-{3-[(3-amino-4-methylpentanoyl)amino]phenyl}-3-cyano-6-(4-fluoro-2-hydroxyphenyl)pyridin-2-yl]-2-furamide hydrochloride] |
| 209 to 216 °C | ≤ 10 µM | Cl.N#Cc1c(-c2cccc(NC(=O)CCN)c2)cc(-c2ccc(C(F)(F)F)cc2O)nc1NC(=O)c1cccs1 [Example 64, N-{4-[3-(β-alanylamino)phenyl]-3-cyano-6-[2-hydroxy-4-(trifluoromethyl)phenyl]pyridin-2-yl}thiophene-2-carboxamide hydrochloride] |
| 218 to 221 °C | ≤ 10 µM | C[C@@H](N)CC(=O)Nc1cccc(-c2cc(-c3ccc(Cl)cc3O)nc(NC(=O)c3nccs3)c2C#N)c1.Cl [Example 270, N-[4-(3-{[(3R)-3-aminobutanoyl]amino}phenyl)-6-(4-chloro-2-hydroxyphenyl)-3-cyanopyridin-2-yl]-1,3-thiazole-2-carboxamide hydrochloride] |
| 244 to 246 °C | ≤ 10 µM | COc1ccccc1C(=O)Nc1nc(-c2ccc(F)cc2O)cc(-c2cccc(C(=O)NCC(C)(C)CN)c2)c1C#N.Cl [Example 246, N-[4-(3-{[(3-amino-2,2-dimethylpropyl)amino]carbonyl}phenyl)-3-cyano-6-(4-fluoro-2-hydroxyphenyl)pyridin-2-yl]-2-methoxybenzamide hydrochloride] |
